From patent US10597396B2, “Beta-lactamase inhibitors” (Novartis AG, priority 2016, dated 2020)
Where two headings read alike, the source gives them in different places.

What was measured:
Assay type in all cases: cell-based
E. coli (OXA-18) = assay: microbe, parasite or virus in culture; settings: for MIC: Escherichia coli
Experimental: (§1) MICs were determined by the broth microdilution method in accordance with Clinical and Laboratories Institute (CLSI) guidelines. In brief, fresh overnight bacterial cultures were suspended in sterile saline, and adjusted to a 0.5 McFarland turbidity standard. Bacterial suspensions were then diluted in cation adjusted Mueller-Hinton Broth (MHB II; BBL) to yield a final inoculum of approximately 5×10^5 colony-forming units (CFU)/mL. A master plate of antibiotics was prepared at a concentration equivalent to hundred-fold the highest desired final concentration in 100% dimethyl sulfoxide (DMSO). The master antibiotic plate was then diluted by serial twofold dilution with a multichannel pipette. The resulting dilution series of compounds were diluted 1:10 with sterile water or a solution of beta-lactamase inhibitor prepared at a concentration equivalent to eleven-fold the desired final concentration in deionized water leading to a 10% DMSO final concentration. A volume of 10 μL of the drug dilution series was transferred to 96-well assay plates. Assay plates were inoculated with 90 μL of bacterial suspensions and incubated at 35° C. for 20 hrs. The assay plates were read using a microtiter plate reader (Molecular Devices) at 600 nm as well as by visual observation with a reading mirror. The lowest concentration of the compound that prevented visible growth was recorded as the MIC.
(§2) Synergy or potentiation of beta-lactam antibiotics through inhibition of […] was assessed against an isogenic panel of E. coli strains, each expressing a unique beta-lactamase, and against clinical strains.
(§3) Construction of E. coli isogenic strains, NB27273-CDY0105 (OXA-18) and NB27273-CDY0048 (TEM-10). […] The gene encoding OXA-18 was then digested with XhoI and EcoRI and inserted into this vector, from which the gene for GIM-1 had been removed with XhoI and EcoRI.
These final vectors for expression of OXA-18 and TEM-10 were transformed into BW25113 pspB to generate strains NB27273-CDY0105 (expressing OXA-18) and NB27273-CDY0048 (expressing TEM-10).

E. coli (AmpC) = assay: microbe, parasite or virus in culture; settings: for MIC: Escherichia coli
Experimental: as §1, with “MIC. Performance of the assay was monitored by testing aztreonam against laboratory quality control strains in accordance with guidelines of the CLSI.” for “MIC.”
as §2
The gene encoding AmpC was PCR amplified from the genome of strain P. aeruginosa PAO1 (NB52019) (GenBank ID U5R279) using primer pair E252 (gccCTCGAGggcgaggccccggcggatcgc) (SEQ ID NO: 17) and E253 (tgaGAATTCtcagcgcttcagcggcacct) (SEQ ID NO: 18).
The PCR products were then digested with XhoI and EcoRI and ligated into similarly digested plasmid pAH63-pstS(BlaP). Plasmid pAH63-pstS(BlaP) is a derivative of plasmid pAH63 (J Bacteriol: 183(21): 6384-6393) made by cloning the TEM-1 (bla) promoter and signal peptide encoding region from plasmid pBAD (J Bacteriol. 1995 July 177(14):4121-30) into plasmid pAH63. This fragment was PCR amplified from pBAD using primer pair E192 (ttcaCTGCAGtgaacgttgcgaagcaacggC) (SEQ ID NO:19) and E194 (TCGAggatcctcgagagcaaaaacaggaaggcaaaatgccg) (SEQ ID NO:20), digested with PstI and BamHI and inserted into similarly digested plasmid pAH63. Therefore, expression of beta-lactamases from pAH63-pstS(BlaP) based constructs is constitutive and the signal sequence is provided to direct these proteins to the periplasm. […]

[1] = test system: E. coli ATCC 25922, K. pneumoniae ATCC 43816, P. aeruginosa ATCC 27853; assay: Direct antibacterial activity of BLIs, summary of Table A in words; settings: BLI alone; statement on Table A
Experimental: as §1, with “A volume of 10 μL of the drug dilution series was transferred to 96-well assay plates. Assay plates were inoculated with 90 μL of bacterial suspensions and incubated at 35° C. for 20 hrs.” left out, “MIC. Performance of the assay was monitored by testing aztreonam against laboratory quality control strains in accordance with guidelines of the CLSI.” for “MIC.”

E. coli (CTX-M-15) = assay: microbe, parasite or virus in culture; settings: for MIC: Escherichia coli
Experimental: as §1, §2
(§4) Strain NB27273 (BW25113 pspB::Km^r) was obtained from the Keio transposon insertion collection. The strain has the pspB gene replaced by a kanamycin resistance marker (BW25113 pspB::Km^r). This strain was cured of the transposon in pspB via FLP recombinase using published methodology. The resulting strain, BW25113 pspB, was used as a host for multicopy vectors expressing key beta-lactamases. Multicopy plasmids directing constitutive expression of beta-lactamases were established as follows: Synthetic, codon optimized genes encoding E. coli KPC-2, SHV-12 and CTX-M-15 beta-lactamases were made by DNA2.0 (Palo Alto, Calif.). Each of the synthetic fragments were designed to contain NotI and NcoI restriction sites at their termini, allowing ligation into a NotI/NcoI digested pET28a(+) derivative for protein expression. […] The codon optimized nucleotide sequences and relevant primer recognition information is shown below:
(§5) The PCR products were then digested with XhoI and EcoRI and ligated into similarly digested plasmid pAH63-pstS(BlaP). […] Therefore, expression of beta-lactamases from pAH63-pstS(BlaP) based constructs is constitutive and the signal sequence is provided to direct these proteins to the periplasm. […] These fragments were then digested with XbaI and EcoRI, and each was inserted into pBAD18-kan that had been digested with the same enzymes to generate multicopy vectors expressing KPC-2, SHV-12 and CTX-M-15, respectively. These vectors were transformed into BW25113 pspB to generate strains NB27273-CDY0033 (expressing KPC-2), NB27273-CDY0030 (expressing SHV-12), NB27273-CDY0034 (expressing CTX-M-15) and NB27273-CDY0036 (expressing AmpC). The pBAD18-kan vector also contains the TEM promoter region and signal sequence, (but lacks any intact beta-lactamase genes) and was transformed into BW25113 pspB using standard protocols to generate the control strain NB27273-CDY0026.

E. coli (KPC-2) = assay: microbe, parasite or virus in culture; settings: for MIC: Escherichia coli
Experimental: as §1, §2, §4, §5

E. coli (SHV-12) = assay: microbe, parasite or virus in culture; settings: for MIC: Escherichia coli
Experimental: as §1, §2, §4, §5

E. coli (TEM-10) = assay: microbe, parasite or virus in culture; settings: for MIC: Escherichia coli
Experimental: as §1, §2, §3
From this template DNA, three fragments were generated by PCR using the following primer pairs;
This fragment was then digested with XbaI and EcoRI and inserted into pBAD-kan which was also cut with the same enzymes. […]

[2] = test system: K. pneumoniae NB29323 (CTX-M-15, OXA-48, VEB-1); assay: Potentiation of beta-lactam MIC in beta-lactam resistant clinical isolate; settings: Klebsiella pneumoniae, read-out: Activity (MIC) of aztreonam alone
Experimental: as §1, with “MIC. Performance of the assay was monitored by testing aztreonam against laboratory quality control strains in accordance with guidelines of the CLSI.” for “MIC.”
as §2

[3] = test system: Enterobacter cloacae NB25055 (CMY-2); assay: as above; settings: read-out: Activity (MIC) of piperacillin alone
Experimental: as §1, with “MIC. Performance of the assay was monitored by testing aztreonam against laboratory quality control strains in accordance with guidelines of the CLSI.” for “MIC.”
as §2

[4] = test system: K. pneumoniae NB29082 (KPC-2); assay: as above; settings: Klebsiella pneumoniae, read-out: Activity (MIC) of piperacillin alone
Experimental: as §1, with “MIC. Performance of the assay was monitored by testing aztreonam against laboratory quality control strains in accordance with guidelines of the CLSI.” for “MIC.”
as §2

S. aureus NB01437 (BLA+) = assay: as above; settings: Staphylococcus aureus, read-out: Activity (MIC) of piperacillin alone
Experimental: as §1, with “MIC. Performance of the assay was monitored by testing aztreonam against laboratory quality control strains in accordance with guidelines of the CLSI.” for “MIC.”
as §2

[5] = read-out: MIC of ceftazidime alone, no BLI
[6] = no BLI, read-out: Activity (MIC) of Beta-Lactam 5 alone

## C[C@]1(Cn2ccnn2)[C@H](C(=O)O)N2C(=O)C[C@H]2S1(=O)=O [Tazobactam]
E. coli (OXA-18); BLI at 4 μg/mL
  MIC of piperacillin in combination with the BLI: 8 µg/mL

## O=C1NCC[C@@H]2C[C@@H]3CN(C(=O)N3OS(=O)(=O)[O-])[C@H]12.[Na+] [Example 7, Sodium (4R,5aR,9aS)-2,9-dioxooctahydro-1,4-methanopyrido[3,4-d][1,3]diazepin-3(2H)-yl hydrogen sulfate]
E. coli (AmpC); BLI at 2 μg/mL
  MIC of piperacillin in combination with the BLI: 8 µg/mL
E. coli (OXA-18); BLI at 2 μg/mL
  MIC of piperacillin in combination with the BLI: 8 µg/mL

## O=C(NC1CCNCC1)[C@@H]1CC[C@@H]2CN1C(=O)N2OS(=O)(=O)O [Relebactam]
E. coli (OXA-18); BLI at 2 μg/mL
  MIC of piperacillin in combination with the BLI: >32 µg/mL

## CN1C[C@@H]2C[C@@H]3CN(C(=O)N3OS(=O)(=O)[O-])[C@@H]2C1=O.[Na+] [Example 2, Sodium (4R,5aS,8aS)-7-methyl-2,8-dioxohexahydro-2H-1,4-methanopyrrolo[3,4-d][1,3]diazepin-3(4H)-yl sulfate]
E. coli (OXA-18); BLI at 2 μg/mL
  MIC of piperacillin in combination with the BLI: 4 µg/mL

## NC(=O)[C@@H]1CC[C@@H]2CN1C(=O)N2OS(=O)(=O)O [Avibactam]
E. coli (OXA-18); BLI at 2 μg/mL
  MIC of piperacillin in combination with the BLI: 2 µg/mL
[1]
  Direct antibacterial activity of the BLI, in words: exhibit direct antibacterial activity

## Meropenem
E. coli (CTX-M-15); no BLI
  MIC of meropenem alone: ≤0.06 µg/mL
E. coli (KPC-2); E. coli (KPC-2), no BLI
  MIC of meropenem alone: 1 µg/mL
E. coli (SHV-12); no BLI
  MIC of meropenem alone: ≤0.06 µg/mL
E. coli (TEM-10); no BLI
  MIC of meropenem alone: ≤0.06 µg/mL
E. coli (AmpC); no BLI
  MIC of meropenem alone: ≤0.06 µg/mL
E. coli (OXA-18); no BLI
  MIC of meropenem alone: ≤0.06 µg/mL

## C[C@H]1[C@H](NC(=O)/C(=N\OC(C)(C)C(=O)O)c2csc(N)n2)C(=O)N1S(=O)(=O)O [Aztreonam]
[2]
  MIC: > 64 µg/mL

## CC(C)(O/N=C(\C(=O)N[C@@H]1C(=O)N2C(C(=O)O)=C(C[n+]3ccccc3)CS[C@H]12)c1csc(N)n1)C(=O)O [Ceftazidime]
E. coli (CTX-M-15); [5]
  MIC: 16 µg/mL
E. coli (KPC-2); read-out: MIC of ceftazidime alone
  MIC: 4 µg/mL
E. coli (SHV-12); [5]
  MIC: > 64 µg/mL
E. coli (TEM-10); [5]
  MIC: > 64 µg/mL
E. coli (AmpC); [5]
  MIC: 4 µg/mL
E. coli (OXA-18); [5]
  MIC: > 64 µg/mL

## O=C1[C@@H]2[C@@H](C[C@@H]3CN2C(=O)N3OS(=O)(=O)[O-])CN1C1CC1.[Na+] [Example 3, Sodium (4R,5aS,8aS)-7-cyclopropyl-2,8-dioxohexahydro-2H-1,4-methanopyrrolo[3,4-d][1,3]diazepin-3(4H)-yl sulfate]
E. coli (OXA-18); BLI at 2 μg/mL
  MIC of piperacillin in combination with the BLI: 4 µg/mL

## CCN1CCN(C(=O)N[C@@H](C(=O)N[C@@H]2C(=O)N3C2SC(C)(C)[C@@H]3C(=O)O)c2ccccc2)C(=O)C1=O (some centres unmarked) [Piperacillin]
[3]
  MIC: > 64 µg/mL
[4]
  MIC: > 64 µg/mL
S. aureus NB01437 (BLA+)
  MIC: 64 µg/mL

## O=C1NC[C@@H]2C[C@@H]3CN(C(=O)N3OS(=O)(=O)[O-])[C@H]12.[Na+] [Example 1, Sodium (4R,5aS,8aS)-2,8-dioxohexahydro-2H-1,4-methanopyrrolo[3,4-d][1,3]diazepin-3(4H)-yl sulfate]
E. coli (OXA-18); BLI at 2 μg/mL
  MIC of piperacillin in combination with the BLI: 2 µg/mL
[1]
  Direct antibacterial activity of the BLI, in words: does not exhibit much direct antibiotic activity

## Nc1nc(/C(=N/OC2(C(=O)O)CC2)C(=O)N[C@@H]2C(=O)N(S(=O)(=O)O)[C@@H]2CN2CCOC2=O)cs1 [Beta-Lactam 5]
E. coli (CTX-M-15); [6]
  MIC: 0.125 µg/mL
E. coli (KPC-2); E. coli (KPC-2), no BLI, read-out: Activity (MIC) of Beta-Lactam 5 alone
  MIC: 0.25 µg/mL
E. coli (SHV-12); [6]
  MIC: 0.5 µg/mL
E. coli (TEM-10); [6]
  MIC: 2 µg/mL
E. coli (AmpC); [6]
  MIC: 0.25 µg/mL
E. coli (OXA-18); [6]
  MIC: 0.5 µg/mL
